The text below walks through data of article PMC2099433, “The binding site for neohesperidin dihydrochalcone at the human sweet taste receptor” (BMC Structural Biology, 2007).

The structures appear in SMILES notation. Where a chain is given by its changes, count along the chain named. Where a SMILES comes first, the peptide text is derived from it.

The target of assay [1] is T1, hTAS1R2 + hTAS1R3 L798I^7.36 (Homo sapiens, UniProt Q7RTX0+Q8TE23, L798I).
T1 construct: expressed in transfected cells; host or cells: HEK293T cells stably expressing G16Gust44
T1 sequence (Q8TE23 20-839): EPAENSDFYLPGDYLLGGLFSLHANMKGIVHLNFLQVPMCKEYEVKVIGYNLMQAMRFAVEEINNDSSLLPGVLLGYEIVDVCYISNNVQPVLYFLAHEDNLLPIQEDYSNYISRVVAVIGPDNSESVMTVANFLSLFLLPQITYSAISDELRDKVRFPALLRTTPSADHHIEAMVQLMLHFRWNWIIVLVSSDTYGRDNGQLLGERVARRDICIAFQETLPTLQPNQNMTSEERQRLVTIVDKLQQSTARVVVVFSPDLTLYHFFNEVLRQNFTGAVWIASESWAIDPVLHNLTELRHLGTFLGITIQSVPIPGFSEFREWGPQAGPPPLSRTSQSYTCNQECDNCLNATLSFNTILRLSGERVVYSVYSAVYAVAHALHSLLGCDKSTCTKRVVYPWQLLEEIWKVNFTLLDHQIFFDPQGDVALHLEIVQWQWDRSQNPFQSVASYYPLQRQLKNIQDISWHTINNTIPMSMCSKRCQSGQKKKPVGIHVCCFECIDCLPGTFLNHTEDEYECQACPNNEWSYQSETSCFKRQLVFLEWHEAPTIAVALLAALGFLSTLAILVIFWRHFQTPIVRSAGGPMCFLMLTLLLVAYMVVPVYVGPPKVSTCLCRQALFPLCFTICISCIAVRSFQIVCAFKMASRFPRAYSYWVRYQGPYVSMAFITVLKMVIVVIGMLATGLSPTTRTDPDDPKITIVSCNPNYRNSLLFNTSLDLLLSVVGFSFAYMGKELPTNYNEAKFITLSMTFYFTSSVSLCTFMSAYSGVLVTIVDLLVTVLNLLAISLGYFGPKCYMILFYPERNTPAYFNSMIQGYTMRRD
T1 sequence (Q7RTX0 21-852 L798I): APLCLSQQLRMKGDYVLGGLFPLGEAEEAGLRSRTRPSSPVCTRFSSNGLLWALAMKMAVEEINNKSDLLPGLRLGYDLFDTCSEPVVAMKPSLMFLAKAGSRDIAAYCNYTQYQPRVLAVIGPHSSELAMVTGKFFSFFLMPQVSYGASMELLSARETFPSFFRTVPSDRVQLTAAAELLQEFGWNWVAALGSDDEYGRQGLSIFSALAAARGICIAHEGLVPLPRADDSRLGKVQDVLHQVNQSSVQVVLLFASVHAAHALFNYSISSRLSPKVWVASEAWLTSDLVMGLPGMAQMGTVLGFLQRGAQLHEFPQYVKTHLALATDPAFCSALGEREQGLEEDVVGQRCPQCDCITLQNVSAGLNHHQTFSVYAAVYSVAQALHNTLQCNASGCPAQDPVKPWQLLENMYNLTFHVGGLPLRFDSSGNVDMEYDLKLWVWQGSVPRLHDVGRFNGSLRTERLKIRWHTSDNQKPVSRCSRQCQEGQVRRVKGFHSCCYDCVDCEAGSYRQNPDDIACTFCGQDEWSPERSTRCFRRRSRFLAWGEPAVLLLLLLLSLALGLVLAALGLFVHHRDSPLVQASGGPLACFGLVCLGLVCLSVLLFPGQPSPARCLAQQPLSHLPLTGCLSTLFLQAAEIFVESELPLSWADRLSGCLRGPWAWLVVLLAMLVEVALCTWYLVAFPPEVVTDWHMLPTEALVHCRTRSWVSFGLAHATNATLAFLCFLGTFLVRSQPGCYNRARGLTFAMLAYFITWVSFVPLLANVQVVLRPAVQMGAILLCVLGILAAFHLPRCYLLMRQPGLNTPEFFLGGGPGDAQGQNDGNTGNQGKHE
As to the kind of experiment: Calcium response (FLIPR), hTAS1R3 mutant coexpressed with hTAS1R2. In kind it is cell-based. Conditions: variant L798I^7.36; for Emax: read-out: maximal signal (% of wt). Put shortly: (§1)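 HEK293T cells stably expressing chimeric G16Gust44 were transiently transfected with C-terminally HSV-tagged hTAS1R2 and mutant hTAS1R3, then loaded 24 h later with Fluo4-AM for 1 h. Calcium mobilization after sweet-tastant application was read by FLIPR, mock-corrected and expressed as ΔF/F.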

The target of assay [2] is T2, hTAS1R2 + hTAS1R3 R725M^5.38 (Homo sapiens, UniProt Q7RTX0+Q8TE23, R725M).
T2 construct: expressed in transfected cells; host or cells: HEK293T cells stably expressing G16Gust44
T2 sequence (Q7RTX0 21-852 R725M): T1 sequence (Q7RTX0 21-852 L798I) with R705M, I778L
T2 sequence (Q8TE23 20-839): T1 sequence (Q8TE23 20-839)
The assay is described as above. Type of assay: cell-based. Conditions: variant R725M^5.38; for Emax: read-out: maximal signal (% of wt). Put shortly: as §1

`COc1ccc(CCC(=O)c2c(O)cc(O[C@@H]3O[C@H](CO)[C@@H](O)[C@H](O)[C@H]3O[C@@H]3O[C@@H](C)[C@H](O)[C@@H](O)[C@H]3O)cc2O)cc1O` [NHDC, neohesperidin dihydrochalcone]: in assay [1], the EC50 was found to be 200 ± 200 µM and the Emax is 66 ± 26%. Besides, in assay [2], the EC50 was 1300 ± 400 µM and the Emax worked out at 64 ± 14%.

As to `COC(=O)[C@H](Cc1ccccc1)NC(=O)[C@@H](N)CC(=O)O` [aspartame] (HELM PEPTIDE1{D.F.[CO[*:1]]}$$$$V2.0), the results for the EC50 in assay [1] and in assay [2] were 900 ± 400 µM and 1500 ± 700 µM, respectively. In addition, the Emax in assay [1] is 81 ± 5%; in assay [2], 56 ± 1%.

A word on the EC50: it is the concentration at which the effect is half-maximal.
